Measurements published in patent US20130273092A1 (priority 2010, published 2013).

Tests used:
Format in all cases: cell-based, C57BL/6 mice
[1] = system: Vb6+ CD8 clone
[2] = system: Vb6-CD8 clone
[3] = system: CD8 cells

Substance | IFN-γ by ELISA [1] | proliferation (3H-thymidine incorporation, stimulation index) [1] | response pattern (IFN-γ and proliferation) [2] | TNF-α and IFN-γ expression [3]
H-VAHSVIGFIQRMFSE-OH [YopE peptide number 14] | specifically produced IFN-γ | proliferated | identical response pattern | –
H-SVIGFIQRM-OH [SEQ ID NO: 3] | – | – | – | stimulated TNF-α and IFN-γ expression from nearly as many CD8 cells as did the polyclonal stimulus anti-CD3
